Experimental data published in US12091411B2, “IRAK degraders and uses thereof” (Kymera Therapeutics, Inc., priority 2022, dated 2024).
Read-outs that look alike come from different tables or passages of the source.

Target: T1, IRAK4 (Homo sapiens, UniProt Q9NWZ3)
T1 construct: Degradation of IRAK4 in OCI-LY10 was quantitatively measured using Meso Scale Discovery technology; endogenous in cells; host or cells: OCI-LY10
T1 sequence (Q9NWZ3 1-460): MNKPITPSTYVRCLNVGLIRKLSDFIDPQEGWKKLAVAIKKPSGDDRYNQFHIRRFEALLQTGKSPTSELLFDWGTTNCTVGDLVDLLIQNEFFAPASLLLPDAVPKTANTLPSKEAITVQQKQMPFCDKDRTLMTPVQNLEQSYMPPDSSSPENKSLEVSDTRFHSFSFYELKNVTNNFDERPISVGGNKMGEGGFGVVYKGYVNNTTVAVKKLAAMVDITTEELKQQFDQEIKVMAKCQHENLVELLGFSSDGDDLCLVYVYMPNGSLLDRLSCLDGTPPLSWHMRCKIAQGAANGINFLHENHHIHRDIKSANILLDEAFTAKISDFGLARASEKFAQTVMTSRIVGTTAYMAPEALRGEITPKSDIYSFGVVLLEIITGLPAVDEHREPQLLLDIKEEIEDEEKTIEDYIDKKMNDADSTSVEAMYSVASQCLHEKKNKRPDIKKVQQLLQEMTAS
Assay: IRAK4 MSD Degradation in OCI-LY10
Format: cell-based
Settings: OCI-LY10 cells, MSD
Summary of the method: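 OCI-LY10 cells exposed to 8-point 1:3 compound series (top 1 to 10 μM) for 4 to 24 h at 37 °C, 5% CO2. Lysate IRAK4 quantified by MSD sandwich immunoassay. DC50 from three-parameter logistic fit, binned A (<0.01 μM) to D (>0.2 μM or not tested).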

[1] = 4 hrs incubation, read-out: IRAK4 degradation in OCI-LY10 at 4 hrs: DC50
[2] = 24 hrs incubation, read-out: IRAK4 degradation in OCI-LY10 at 24 hrs: DC50

| SMILES | DC50 [1] | DC50 [2] |
| --- | --- | --- |
| Cn1c(=O)n(C2CCC(=O)NC2=O)c2cccc(C#CCN3CCC(C[C@H]4CC[C@H](n5cc(NC(=O)c6cnn7ccc(N8C[C@H]9C[C@@H]8CO9)nc67)c(C(F)F)n5)CC4)C(F)(F)C3)c21 (stereo partly shown) [I-375] | > 200 nM | > 200 nM |
| CN(C[C@H]1CC[C@H](n2cc(NC(=O)c3cnn4cccnc34)c(C(F)F)n2)CC1)C1CCN(c2cccc3c2n(C)c(=O)n3C2CCC(=O)NC2=O)CC1(F)F (stereo partly shown) [I-376] | > 200 nM | > 200 nM |
| CN(Cc1ccc(-n2cc(NC(=O)c3cnn4cccnc34)c(C(F)F)n2)cc1)C1CCN(c2cccc3c2n(C)c(=O)n3C2CCC(=O)NC2=O)CC1(F)F (stereo not shown) [I-377] | > 200 nM | > 200 nM |
| CN(C[C@H]1CC[C@H](n2cc(NC(=O)c3cnn4cccnc34)c(C(F)F)n2)CC1)c1ccc(-c2cccc3c2n(C)c(=O)n3C2CCC(=O)NC2=O)cc1 (stereo partly shown) [I-378] | > 200 nM | > 200 nM |
| Cn1c(=O)n(C2CCC(=O)NC2=O)c2cccc(C#CC[C@H]3CN(CC4CCC(n5cc(NC(=O)c6cnn7ccc(N8C[C@H]9C[C@@H]8CO9)nc67)c(C(F)F)n5)CC4)CCO3)c21 (stereo partly shown) [I-379] | > 200 nM | > 200 nM |
| Cn1c(=O)n(C2CCC(=O)NC2=O)c2cccc(C#CC[C@H]3CN(Cc4ccc(-n5cc(NC(=O)c6cnn7ccc(N8C[C@H]9C[C@@H]8CO9)nc67)c(C(F)F)n5)cc4)CCO3)c21 (stereo partly shown) [I-380] | > 200 nM | > 200 nM |
| Cn1c(=O)n(C2CCC(=O)NC2=O)c2cccc(C[C@H]3CN(C[C@H]4CC[C@H](n5cc(NC(=O)c6cnn7cccnc67)c(C(F)F)n5)CC4)CCO3)c21 (stereo partly shown) [I-381] | > 200 nM | > 200 nM |
| Cn1c(=O)n(C2CCC(=O)NC2=O)c2cccc(C[C@H]3CN(Cc4ccc(-n5cc(NC(=O)c6cnn7cccnc67)c(C(F)F)n5)cc4)CCO3)c21 (stereo partly shown) [I-382] | > 200 nM | > 200 nM |
| Cn1c(=O)n(C2CCC(=O)NC2=O)c2cccc(C[C@H]3CN(Cc4ccc(-n5cc(NC(=O)c6cnn7ccc(N8C[C@H]9C[C@@H]8CO9)nc67)c(C(F)F)n5)cc4)CCO3)c21 (stereo partly shown) [I-384] | > 200 nM | > 200 nM |
| Cn1c(=O)n(C2CCC(=O)NC2=O)c2cccc(CC[C@H]3CN(C[C@H]4CC[C@H](n5cc(NC(=O)c6cnn7ccc(N8C[C@H]9C[C@@H]8CO9)nc67)c(C(F)F)n5)CC4)CCO3)c21 (stereo partly shown) [I-385] | < 10 nM | > 200 nM |
| Cn1c(=O)n(C2CCC(=O)NC2=O)c2cccc(CC[C@H]3CN(Cc4ccc(-n5cc(NC(=O)c6cnn7ccc(N8C[C@H]9C[C@@H]8CO9)nc67)c(C(F)F)n5)cc4)CCO3)c21 (stereo partly shown) [I-386] | > 200 nM | > 200 nM |
| Cn1c(=O)n(C2CCC(=O)NC2=O)c2cccc(CC[C@H]3CN(C[C@H]4CC[C@H](n5cc(NC(=O)c6cnn7cccnc67)c(C(F)F)n5)CC4)CCO3)c21 (stereo partly shown) [I-387] | < 10 nM | > 200 nM |
| Cn1c(=O)n(C2CCC(=O)NC2=O)c2cccc(CC[C@H]3CN(Cc4ccc(-n5cc(NC(=O)c6cnn7cccnc67)c(C(F)F)n5)cc4)CCO3)c21 (stereo partly shown) [I-388] | > 200 nM | > 200 nM |
| Cn1c(=O)n(C2CCC(=O)NC2=O)c2cccc(C#CC[C@@H]3CN(C[C@H]4CC[C@H](n5cc(NC(=O)c6cnn7ccc(N8C[C@H]9C[C@@H]8CO9)nc67)c(C(F)F)n5)CC4)CCO3)c21 (stereo partly shown) [I-389] | 10 to 100 nM | > 200 nM |
| Cn1c(=O)n(C2CCC(=O)NC2=O)c2cccc(C#CC[C@@H]3CN(Cc4ccc(-n5cc(NC(=O)c6cnn7ccc(N8C[C@H]9C[C@@H]8CO9)nc67)c(C(F)F)n5)cc4)CCO3)c21 (stereo partly shown) [I-390] | > 200 nM | > 200 nM |
| Cn1c(=O)n(C2CCC(=O)NC2=O)c2cccc(C[C@@H]3CN(C[C@H]4CC[C@H](n5cc(NC(=O)c6cnn7cccnc67)c(C(F)F)n5)CC4)CCO3)c21 (stereo partly shown) [I-391] | > 200 nM | > 200 nM |
| Cn1c(=O)n(C2CCC(=O)NC2=O)c2cccc(C[C@@H]3CN(Cc4ccc(-n5cc(NC(=O)c6cnn7cccnc67)c(C(F)F)n5)cc4)CCO3)c21 (stereo partly shown) [I-392] | > 200 nM | > 200 nM |
